# Source: patent US7223770B2, “Tocopherol-modified therapeutic drug compounds” (priority 2003, dated 2007)
# Structures can show the parent of a compound that is named as a salt. Where two headings read alike, the source gives them in different places. Marks after values point to notes of the source that are not given here.
# Experiments:
# [1] = tested on: HCT-15 (colorectal); conditions: HCT-15 (COLON); value reported by NCI; cited from earlier work
# [2] = tested on: NCI-H460 (non-small cell lung); conditions: NCI-H460 (NSCLC); value reported by NCI; cited from earlier work
# [3] = tested on: OVCAR-3 (ovarian); conditions: value reported by NCI; cited from earlier work
# [4] = tested on: HT-29 (colorectal); conditions: HT29 (COLON); value reported by NCI; cited from earlier work
# [5] = tested on: HCT-116 (colorectal); conditions: HCT-116 (COLON); value reported by NCI; cited from earlier work
# [6] = rats, intravenous; literature value; cited from earlier work
# [7] = tested on: MCF-7 (breast); conditions: value reported by NCI; cited from earlier work
# [8] = tested on: HT-29 human tumor cells; experiment: HT-29 Human Tumor Xenograft anti-tumor activity; type: in vivo, Athymic mice; conditions: for Number of animals with no measurable tumor on Day 55 / Tumor Growth Delay (T − C) / Tumor Growth Inhibition (% T/C) / Tumors that had still not reached maximum pre-determined size: 15 mg/kg intravenous; for Tumor Growth Inhibition (% T/C): at Day 55; for Median tumor size / Mice with no measurable tumor: fifty-five days after dose initiation
# Procedure: HT-29 Human Tumor Xenograft. Athymic mice were subcutaneously implanted with 30–40 mg tumor fragments using 12-gauge trocar needles. A sufficient number of mice were implanted with fragments so tumors in narrow weight range (100–200 mg) were selected for the trial on staging day (SD). The animals selected with tumors in the proper size range were randomized into six groups of 10 animals and intravenously administered the following test compounds:
# The tumor measurements were performed using a caliper (millimeters); the tumor volume was calculated based on the formula: (Length×width^2)/2=Volume (mm^3).
# [9] = Pharmacokinetics following intravenous administration in rats; type: in vivo, Sprague-Dawley rats; conditions: for Clearance / MRT / t1/2 (elimination): Sprague-Dawley rats, bolus intravenous, emulsion, approximately 14 mg/kg, plasma; for Plasma elimination half-life, times longer than the commercially available analogs: rats, intravenous
# Procedure: Blood samples were collected for up to 120 hours post dose via the jugular vein. […] A noncompartmental analysis was carried out using WinNonlin (v 4.1).
# The term “elimination rate constant” refers to the fraction of drug eliminated per unit of time. With first-order elimination, the rate of elimination is directly proportional to the serum drug concentration. There is a linear relationship between rate of elimination and serum drug concentration. Although the amount of drug eliminated in a first-order process changes with concentration, the fraction of a drug eliminated remains constant.
# The term “clearance” refers to a measure of the body's ability to eliminate drug and is a hypothetical volume of distribution of drug which is cleared per unit time (i.e., mL/min) by any pathway of drug removal. […] The term “volume of distribution” refers to a calculated volume of body fluid that would be required to dissolve the total amount of drug at the same concentration as that found in the blood. It is a proportionality constant relating the amount of drug in the body to the measured concentration in biological fluid (blood, plasma, serum).
# [10] = In vitro stability of the lactone form in presence of human serum albumin; type: in vitro ADME; conditions: saline buffered solution 10 mM pH 7.4, 4% human serum albumin, 37° C.; tested as SN2300 / SN2310 emulsion; FIG. 12
# Text: High performance liquid chromatography with fluorescence detection was used to analyze the decrease in the concentration of the lactone form over time.
# [11] = tested on: HCT-15 (colorectal); experiment: In vitro cytotoxicity GI50, ALAMAR BLUE, 48 hours; type: cell-based; conditions: HCT-15 (COLON), emulsion formulation diluted in cell media
# Procedure: (§1) The cells were in contact with varying concentrations of the test article for a period of 48 hours. At the end of 48 hours, staining with ALAMAR BLUE was performed to determine the number of viable cells and calculate the degree of cellular growth inhibition as compared to a control group.
# [12] = tested on: OVCAR-3 (ovarian); experiment: In vitro cytotoxicity GI50, ALAMAR BLUE, 48 hours; type: cell-based; conditions: emulsion formulation diluted in cell media
# Procedure: as §1
# [13] = tested on: HCT-116 (colorectal); experiment: In vitro cytotoxicity GI50, ALAMAR BLUE, 48 hours; type: cell-based; conditions: HCT-116 (COLON), emulsion formulation diluted in cell media
# Procedure: as §1
# [14] = tested on: HT-29 (colorectal); experiment: In vitro cytotoxicity GI50, ALAMAR BLUE, 48 hours; type: cell-based, human; conditions: HT29 (COLON), emulsion formulation diluted in cell media
# Procedure: as §1
# [15] = tested on: NCI-H460 (non-small cell lung); experiment: In vitro cytotoxicity GI50, ALAMAR BLUE, 48 hours; type: cell-based, human; conditions: NCI-H460 (NSCLC), emulsion formulation diluted in cell media
# Procedure: as §1
# [16] = type: physicochemical; conditions: for Solubility in TPGS / Solubility in Vitamin E USP/NF: 65 °C; for Solubility in Tween 80 NF: 65 → Room Temp.; for Solubility in Acetonitrile / Solubility in Captex 300 EP / Solubility in Chloroform / Solubility in DMSO / Solubility in Ethanol Denatured / Solubility in Glycerin USP/EP/BP/JP / Solubility in Methanol / Solubility in Methylene dichloride / Solubility in PEG-400 NF / Solubility in Propylene Glycol, USP / Solubility in Soybean Oil USP: Room Temp.
# Procedure: Compounds were dissolved in each solvent under constant stirring and temperature to saturation. The resulting solutions were centrifuged and the supernatant was analyzed by high performance liquid chromatography (HPLC).
# [17] = tested on: MCF-7 (breast); experiment: In vitro cytotoxicity GI50, ALAMAR BLUE, 48 hours; type: cell-based; conditions: emulsion formulation diluted in cell media
# Procedure: as §1
structure (smiles),measurement,setting,value
"CCc1c2c(nc3ccc(O)cc13)-c1cc3c(c(=O)n1C2)COC(=O)[C@]3(O)CC [SN38, 7-ethyl-10-hydroxycamptothecin]",GI50,[1],0.0079 µM
same,GI50,[2],0.0014 µM
same,GI50,[3],0.0029 µM
same,GI50,[4],0.001 µM
same,GI50,[5],0.021 µM
"CCc1c2c(nc3ccc(OC(=O)N4CCC(N5CCCCC5)CC4)cc13)-c1cc3c(c(=O)n1C2)COC(=O)[C@]3(O)CC [Irinotecan, irinotecan hydrochloride]",GI50,[2],5.01 µM
same,MRT,[6],1.43 h
same,GI50,[7],3.98 µM
same,GI50,[4],12.6 µM
same,Number of animals with no measurable tumor on Day 55,[8]; q1dx5 (2 weeks),0/10
same,Tumor Growth Delay (T − C),[8]; q1dx5 (2 weeks),14 days
same,Tumor Growth Inhibition (% T/C),[8]; q1dx5 (2 weeks),52 % T/C
same,Median tumor size,[8]; q1dx5,1637 mm^3
same,GI50,[5],7.9 µM
CC[C@@]1(O)C(=O)OCc2c1cc1n(c2=O)Cc2cc3ccccc3nc2-1 [Camptothecin],GI50,[1],0.16 µM
same,GI50,[2],0.016 µM
same,Clearance,[6],147 mL/min/kg
same,t1/2 (elimination),[6],1.7 h
same,GI50,[3],0.16 µM
same,GI50,[7],0.013 µM
same,GI50,[4],0.126 µM
same,GI50,[5],0.04 µM
CCc1c2c(nc3ccc(OC(=O)CCC(=O)Oc4c(C)c(C)c5c(c4C)CC[C@@](C)(CCC[C@H](C)CCC[C@H](C)CCCC(C)C)O5)cc13)-c1cc3c(c(=O)n1C2)COC(=O)[C@]3(O)CC [SN2310],Clearance,[9],0.112 mL/min/kg
same,MRT,[9],5.15 h
same,t1/2 (elimination),[9],3.49 h
same,"Plasma elimination half-life, times longer than the commercially available analogs",[9],~3 times
same,Stability of the lactone form over time,[10],greater than that of camptothecin
same,GI50,[11],0.099 µM
same,GI50,[12],0.083 µM
same,GI50,[13],0.119 µM
same,GI50,[14],0.091 µM
same,GI50,[15],0.004 µM
same,Number of animals with no measurable tumor on Day 55,[8]; q1dx5 (2 weeks),4/10
same,Tumor Growth Delay (T − C),[8]; q1dx5 (2 weeks),>28* days
same,Tumors that had still not reached maximum pre-determined size,[8]; q1dx5 (2 weeks),*90% of tumors in this group had still not reached maximum pre-determined size.
same,Tumor Growth Inhibition (% T/C),[8]; q1dx5 (2 weeks),4 % T/C
same,Number of animals with no measurable tumor on Day 55,[8]; q3dx10,8/10
same,Tumor Growth Delay (T − C),[8]; q3dx10,>28* days
same,Tumors that had still not reached maximum pre-determined size,[8]; q3dx10,*90% of tumors in this group had still not reached maximum pre-determined size.
same,Tumor Growth Inhibition (% T/C),[8]; q3dx10,2 % T/C
same,Median tumor size,[8]; q1dx5,126 mm^3
same,Mice with no measurable tumor,[8]; q1dx5,40%
same,Mice with no measurable tumor,[8]; q3dx10,80%
same,Solubility in TPGS,[16],27.6 mg/g
same,Solubility in Vitamin E USP/NF,[16],398.2 mg/g
same,Solubility in Tween 80 NF,[16],2.7 mg/g
same,Solubility in Acetonitrile,[16],3.1 mg/g
same,Solubility in Captex 300 EP,[16],4.4 mg/g
same,Solubility in Chloroform,[16],>97.0 mg/g
same,Solubility in DMSO,[16],30.5 mg/g
same,Solubility in Ethanol Denatured,[16],4.2 mg/g
same,Solubility in Glycerin USP/EP/BP/JP,[16],2.8 mg/g
same,Solubility in Methanol,[16],3.8 mg/g
same,Solubility in Methylene dichloride,[16],>99.7 mg/g
same,Solubility in PEG-400 NF,[16],0.017 mg/g
same,"Solubility in Propylene Glycol, USP",[16],3.2 mg/g
same,Solubility in Soybean Oil USP,[16],3.3 mg/g
"CC[C@@]1(O)C(=O)OCc2c1cc1n(c2=O)Cc2cc3cc(O)ccc3nc2-1 [Example 10-HO-CPT, 10-hydroxycamptothecin]",GI50,[1],0.356 µM
same,GI50,[2],0.011 µM
same,GI50,[3],0.062 µM
same,GI50,[7],0.01 µM
same,GI50,[4],0.112 µM
same,GI50,[5],0.027 µM
"CC[C@@]1(O)C(=O)OCc2c1cc1n(c2=O)Cc2cc3c(CN(C)C)c(O)ccc3nc2-1 [Topotecan, topotecan hydrochloride]",GI50,[1],0.501 µM
same,GI50,[2],0.0199 µM
same,Clearance,[6],53.7 mL/min/kg
same,t1/2 (elimination),[6],1.06 h
same,GI50,[3],0.251 µM
same,GI50,[7],0.0158 µM
same,GI50,[4],0.125 µM
same,GI50,[5],0.0398 µM
CC[C@@]1(OC(=O)CCC(=O)Oc2c(C)c(C)c3c(c2C)CC[C@@](C)(CCC[C@H](C)CCC[C@H](C)CCCC(C)C)O3)C(=O)OCc2c1cc1n(c2=O)Cc2cc3ccccc3nc2-1 [SN2300],Clearance,[9],0.135 mL/min/kg
same,MRT,[9],9.40 h
same,t1/2 (elimination),[9],29.08 h
same,"Plasma elimination half-life, times longer than the commercially available analogs",[9],approximately 30 times
same,Stability of the lactone form over time,[10],greater than that of camptothecin
same,GI50,[11],20 µM
same,"GI50 column, result in words (Poor activity)",[12],Poor
same,GI50,[17],0.325 µM
same,GI50,[13],0.449 µM
same,GI50,[14],0.434 µM
same,GI50,[15],0.043 µM
same,Number of animals with no measurable tumor on Day 55,[8]; q1dx5 (2 weeks),0/10
same,Tumor Growth Delay (T − C),[8]; q1dx5 (2 weeks),8.5 days
same,Tumor Growth Inhibition (% T/C),[8]; q1dx5 (2 weeks),79 % T/C
same,Number of animals with no measurable tumor on Day 55,[8]; q3dx10,0/10
same,Tumor Growth Delay (T − C),[8]; q3dx10,0 days
same,Tumor Growth Inhibition (% T/C),[8]; q3dx10,102 % T/C
same,Solubility in TPGS,[16],>133.3 mg/g
same,Solubility in Vitamin E USP/NF,[16],>288.3 mg/g
same,Solubility in Tween 80 NF,[16],48.3 mg/g
same,Solubility in Acetonitrile,[16],49.6 mg/g
same,Solubility in Captex 300 EP,[16],96.7 mg/g
same,Solubility in Chloroform,[16],>372.5 mg/g
same,Solubility in DMSO,[16],>255.5 mg/g
same,Solubility in Ethanol Denatured,[16],57.1 mg/g
same,Solubility in Glycerin USP/EP/BP/JP,[16],2.541 mg/g
same,Solubility in Methanol,[16],14.4 mg/g
same,Solubility in Methylene dichloride,[16],>336.5 mg/g
same,Solubility in PEG-400 NF,[16],17.5 mg/g
same,"Solubility in Propylene Glycol, USP",[16],0.4633 mg/g
same,Solubility in Soybean Oil USP,[16],45.2 mg/g
